In patent US20070212331A1, “Methods and compositions for selectively killing cells” (priority 2006, published 2007):

Assays:
[1] = system: IIC9 cells (embryonic fibroblasts); test: IIC9 cell death by trypan blue uptake; type: cell-based; settings: for cell death: 6 h (FIG. 1A)
RAW (macrophage) cells = test: Zinc-induced death of RAW (macrophage) cells; type: cell-based
Protocol: Exemplary cell types were treated in vitro with varying amounts of zinc (zinc chloride or zinc sulfate), in the presence or absence of the zinc ionophore pyrithione.

PC12 cells = test: Zinc-induced cell death of PC12 cells; type: cell-based; design: cell lysis (indicative of necrosis) of PC12 cells: dose or concentration left out as unconfirmed
[2] = system: N18TG2 (neuroblastoma) cells; test: Zinc-induced death of N18TG2 (neuroblastoma) cells; type: cell-based; settings: 24 h incubation
Protocol: Exemplary cell types were treated in vitro with varying amounts of zinc (zinc chloride or zinc sulfate), in the presence or absence of the zinc ionophore pyrithione. […] Cell death involves both apoptosis and necrosis as determined by morphological observation.

[3] = system: PC3 cells (prostate cancer cell line); test: Killing of PC3 cells by zinc and zinc-containing liposomes; type: cell-based; settings: PC3 cells in culture (FIG. 6)
Protocol: These cells express high levels of the transferrin receptor and can be targeted by covalently attaching transferrin to the formed liposomes.
We next tested the ability of these liposomes to kill PC3 cells in culture (FIG. 6).
Non-prophetically, zinc containing liposomes were prepared by injecting ethanolic solutions of lipids into 10 mM Hepes buffer pH 6 containing 2.5 M ZnCl2. To make the ethanolic lipid solution, lipids initially dissolved in chloroform were dried by passing gaseous nitrogen over the solution. The dried lipids were dissolved in ethanol at a concentration of […] of phospholipids per mL of alcohol. The alcoholic lipid solution containing dioleoyl phosphatidyly choline, 1,2 dioleoyl phosphatidyly ethanolamine, 1,2 dioleolyl phosphatidyletanolamine-N-4-(p-maleimido-phenyl)butyramide) and cholesterol in a ratio of 7:2:0.05:1 was slowly (0.5 ml/min) injected through a Hamilton syringe into 3 mL of a magnetically stirred Hepes buffer, containing 2.5 mM ZnCl2 The final concentration of ethanol was between 2.5-7.5%. During injection of the lipids, the solution was constantly stirred by a standard magnetic stirrer. To ensure that the temperature of the liposome solution was well above the phase transition of the lipids, the temperature was kept at […]. […]

Ras = Ras activation in IIC9 cells, Raf-RBD pull-down assay; type: cell-based; settings: IIC9 cells
Protocol: (§1) Assays: ERK1/2 activation was determined by harvesting cells directly in boiling SDS-PAGE sample buffer and probing corresponding Western Blots with anti-pERK antibody (Cell Signaling). Blots were stripped and reprobed for total ERK (Cell Signaling). Ras activation was determined using the Raf-RBD assay (21,24). Identification of the specific Ras isoform activated was determined by probing the western blot with isoform-specific antibody (Upstate Biotechnology). Transfection of IIC9 cells was carried out using Novafector. Transfection efficiency of these cells is approximately 90%. The constructs for expression of dn-Ras and Bcl-Xl were kindly provided by Dr. J. Corbett and Dr. Chinnaduri (SLU).
Because Ras is a common upstream activator of ERK1/2 (36), we reasoned that zinc may induce the phosphorylation of ERK1/2 via Ras. This was examined by incubating IIC9 cells with 100 uM zinc and assessing Ras activation by RBD pull-down of GTP-Ras followed by Western blot analysis with a pan-Ras antibody. […] The critical role of Ras in mediating the effects of zinc was confirmed by examining the effect of over-expression of dnRas. […] Consistent with Ras as the upstream activator of the cytotoxic effect of zinc on IIC9, expression of dn H-Ras also attenuates zinc-mediated cell death (FIG. 5B).

[4] = system: IIC9 cells (embryonic fibroblasts); test: IIC9 cell morphology, microscopic examination; type: cell-based
Protocol: FIG. 1 depicts zinc-induced cell death in a time and dose dependent manner. (A) IIC9 cells (embryonic fibroblasts) were serum starved for 2 days and treated with the indicated concentrations of zinc for the indicated time periods. Cell death was monitored by trypan blue exclusion as described in the Materials and Methods. (B-D) Zinc-induced cell death is accompanied by morphological changes associated with apoptosis and necrosis. Shown are cells that were incubated with either 50 μM (C) or 200 μM (D) zinc for 6 hours. Control cells (B) were untreated. Cells were examined microscopically for changes in cell shape and size. […] Cell debris, indicative of cell lysis, was evident.
Cells and Incubation Conditions: IIC9 cells were grown in DMEM containing 10% FCS, P/S. Cells were plated in 12-well plates and grown to approximately 70% confluency. At that time, cells were serum arrested by changing the medium to DMEM (low glucose) without FCS. After 48 hours, cells were treated with zinc as described in the text. Cell death was quantified by trypan blue uptake. Cells were incubated with trypan blue (0.04%) for 5 min. Cells were examined microscopically and the number of blue cells and total cells were counted. Four fields were examined for each condition, with a minimum of 100 cells/field. To examine the effects of selective inhibitors, cells were preincubated with the indicated compound for 30 min. prior to zinc treatment.

ERK = ERK activation (pERK) in PC12 cells; type: cell-based
[5] = system: CD4+ CD8+ alpha beta TCR10CD3(10) thymocytes; settings: 80-200 μM zinc; cited from earlier work
ERK1/2 = ERK1/2 activation in IIC9 cells, Western blot with anti-pERK antibody; type: cell-based; design: time until ERK activation is detected after zinc addition / time ERK activation remains elevated: dose or concentration left out as unconfirmed; settings: IIC9 cells
Protocol: as §1

In the case of [Cl-].[Cl-].[Zn+2] [zinc], the “death of the population” value ([1]; 50 μM zinc, 6-h incubation, experiment of FIG. 2A) is reported as “approximately 25%”, the cell death ([1]; 50 μM zinc) is reported as roughly 15% and the cell death ([1]; 100 μM zinc) is reported as roughly 25%. The cell death ([1]; 200 μM zinc) was “approximately 45%”, the “extracellular zinc concentration necessary to induce the death pathway” value ([1]; IIC9 cells, in the absence of pyrithione) was no less than 50 µM and the “cell death of IIC9 cells” value ([1]; addition of zinc) was “time- and concentration-dependent”. For the same molecule, the “cell death during the first few hours” value ([1]; zinc concentrations as high as 200 μM, first few hours) was “Little or no death”, the “% cell death” value (RAW (macrophage) cells; 25 μM zinc, 0.0 hours of incubation) was 0.0% and the “% cell death” value (RAW (macrophage) cells; 25 μM zinc, 1.0 hours of incubation) was 0.0%. The “% cell death” value (RAW (macrophage) cells; 25 μM zinc, 3.0 hours of incubation) was 0.0%, the “% cell death” value (RAW (macrophage) cells; 25 μM zinc, 5.0 hours of incubation) was 0.0% and the “% cell death” value (RAW (macrophage) cells; 50 μM zinc, 5.0 hours of incubation) was 0.0%. For the same molecule, the “% cell death” value (RAW (macrophage) cells; 50 μM zinc, 18.0 hours of incubation) was 20.0%, the “% cell death” value (RAW (macrophage) cells; 100 μM zinc, 18.0 hours of incubation) was 100.0% and the “cell lysis (indicative of necrosis) of PC12 cells” value (PC12 cells; higher zinc concentrations or longer time periods) was “significant cell lysis”. For the same molecule, the “cell death of PC12 cells” value (PC12 cells; undifferentiated or differentiated PC12 cells, in vitro) was “time and dose-dependent cell death”, the “% death” value ([2]; 25 μM zinc) was 19% and the “% death” value ([2]; 50 μM zinc) was 75%. The “% death” value ([2]; 75 μM zinc) was 84%, the “% death” value ([2]; 150 μM zinc) was 90% and the “cell death of PC3 cells” value [3] was “underwent cell death”. The “activation of Ras” value (Ras; 100 uM zinc, pan-Ras antibody (FIG. 5A)) was roughly 5 fold, the Ras isoform activated (Ras; isoform-specific antibody) was “selective activation of H-Ras” and the cell morphology ([4]; 50 μM zinc, 6 hours (FIG. 1C)) was “rounded and displayed differing degrees of cell shrinkage”. For the same molecule, the “cell population displaying a rounded morphology” value ([4]; 50 μM zinc, first few hours of incubation) was “approximately 50%”, the cell morphology ([4]; 200 μM zinc, 6 hours (FIG. 1D)) was “more varied morphology” and the cell morphology ([4]; 100 or 200 uM zinc, first few hours) was “all cells were rounded and underwent differing degrees of cell shrinkage”. For the same molecule, the “time until pERK could be detected” value (ERK; PC12 cells, after zinc treatment) was “within five minutes”, the “time pERK remained at that level” value (ERK; PC12 cells, longest time period examined) was “at least five hours” and the ERK activation (ERK; zinc treatment of PC12 cells) was “induced ERK activation”. For the same molecule, the “thymocytes in which apoptosis was induced” value [5] was 40%, the “induction of pERK” value (ERK1/2; western blotting with pERK antibody (FIG. 2E)) was “does induce pERK” and the “time until ERK activation is detected after zinc addition” value (ERK1/2; zinc) was no more than 5 min. The “time ERK activation remains elevated” value (ERK1/2; zinc, longest time period examined) was “at least 6 h”.
